Experimental findings from paper PMC12521527, “In vivo self-assembled nano-PROTAC for the dual degradation of AR and HSP90 to overcome castration-resistant prostate cancer resistance” (Signal Transduction and Targeted Therapy, 2025) are described below.

One data set relates to HSP90. The experiment in a line: Western blot HSP90 degradation in 22Rv1 cells. Format: cell-based. On the procedure:
All uncropped blots are presented in Supplementary Fig. 26. j, k Representative 22Rv1 cell CLSM images of the degradation of AR after incubation with FITC-labeled Psa-AR for 12 h and quantitative analysis, n = 3 per group. Scale bar: 10 μm. l, m Representative 22Rv1 cell CLSM images of the degradation of HSP90 after incubation with FITC-labeled Psa-AR for 12 h and quantitative analysis, n = 3 per group. Scale bar: 10 μm. n AR-V7 expression in 22Rv1 cells after treatment with PBS, P-AR (20 μM), Psa-AR (20 μM) or Psa-AR (20 μM) combined with MG132 (2 μM) for 48 h, as determined by western blotting. β-Actin was used as an internal reference. o Results of apoptosis in 22Rv1 cells treated with PBS, P-AR (20 μM), or Psa-AR (20 μM) for 48 h, as detected by flow cytometry.
The pretreated cells were resuspended in lysis buffer containing 50 mM Tris-HCl (pH 8.0), 150 mM NaCl, 1% (v/v) Triton X-100, and protease inhibitors. The protein concentration was determined via a BCA kit (Applygen). Each sample ([…]) was subjected to SDS‒PAGE and then transferred to a PVDF membrane. The blots were blocked in 5% (wt/v) blocking buffer. After washing three times with TBST buffer (10 mM TBS solution containing 0.1% (v/v) Tween-20), the blots were incubated with primary antibodies at 4 °C on a shaker for 16 h. […]
Background: Immunoblotting shows a protein as a band on a membrane.

The subject of a further data set is 22Rv1 xenograft tumor. The experiment in a line: Antitumor efficacy in 22Rv1 xenograft mice. Format: in vivo, BALB/c nude mice. Particulars: for tumor volume / median survival: n = 6. An excerpt:
To evaluate the therapeutic potential and superiority of Psa-AR in prostate cancer, we established subcutaneous xenograft tumor models using AR-mutant 22Rv1 cells.[51] All procedures strictly complied with the Guide for the Care and Use of Laboratory Animals and were approved by the Committee for Animal Research of the National Center for Nanoscience and Technology. When the tumor volume reached ~100 mm³, 22Rv1-bearing mice were randomized into three groups (n = 6/group): the PBS control, Psa-AR, and P-AR groups. Treatments were administered via tail vein injection every other day for five cycles. The tumor volume and body weight were monitored every other day for 20 days (Fig. 6a). […] The individual tumor growth curves for each group are presented in Supplementary Fig. 20. No obvious body weight loss was observed during treatment (Fig. 6c). […] To elucidate the mechanistic basis of tumor suppression, we quantitatively assessed AR and HSP90 protein expression in excised tumor tissues through IF. […] This dual-target degradation profile directly correlates with the observed therapeutic efficacy, validating the assembly driven target engagement and degradation strategy. […] To address the critical limitations of conventional PROTACs, particularly the Hook effect-induced nonlinear pharmacokinetics and narrow therapeutic window. We rigorously evaluated the dose-responsive antitumor efficacy of Psa-AR in 22Rv1 xenograft models. Mice bearing subcutaneous tumors received escalating doses (10, 20, or 30 mg/kg) via intravenous administration every 48 h for five consecutive treatment cycles. The tumor volume and body weight were evaluated for 20 days. Tumor volume was suppressed in a dose-dependent manner, with a mean tumor volume of […], a mean tumor volume of 536 mm^3 at 20 mg/kg and a mean tumor volume of 220 mm^3 at 10 mg/kg (Fig. 6h). The individual tumor growth curves for each group are presented in Supplementary Fig. 21. […] IF analysis of tumor sections provided spatially resolved dose-dependent quantification of AR and HSP90 proteolysis. […] Collectively, the dose-dependent tumor suppression and coordinated target proteolysis observed in the 22Rv1 xenograft model mechanistically validated the therapeutic superiority of in situ self-assembled Psa-AR. To systematically evaluate the therapeutic advantages of the dual-protein targeting strategy of Psa-AR through simultaneous degradation of AR and HSP90 in overcoming tumor drug resistance, this study compared the antitumor efficacy of Psa-AR with that of current clinical regimens (including the AR inhibitor enzalutamide, the HSP90 inhibitor pimitespib, and their combination) in 22Rv1 xenograft models (Fig. 7a). The experimental protocol was designed as follows: When the tumor volume reached ~100 mm³, the tumor-bearing mice were
Fig. 6 In vivo antitumor efficacy of Psa-AR. a Schematic illustration of the tumor inoculation and treatment protocol for 22Rv1 xenograft mice. (n = 6 per group) b Observation of the tumor inhibitory effect on 22Rv1 xenograft mice in PBS, P-AR, or Psa-AR (20 mg/kg in 200 μL of PBS) over 20 days of treatment. c Body weight changes in 22Rv1 xenograft mice in different treatment groups over 20 days. d Kaplan‒Meier survival curves of 22Rv1 xenograft mice in different groups over 20 days of treatment. e Immunofluorescence analysis of AR protein levels in 22Rv1 tumor tissues after treatment with PBS, P-AR, or Psa-AR (20 mg/kg in 200 μL of PBS) for 20 days. Scale bar: 20 μm. f Immunofluorescence analysis of the HSP90 protein levels in 22Rv1 tumor tissues after treatment with PBS, P-AR, or Psa-AR (20 mg/kg in 200 μL of PBS) for 20 days. Scale bar: 20 μm. g Terminal deoxynucleotidyl transferase (TdT) dUTP nick-end labeling (TUNEL) staining of tumors after treatment with PBS, P-AR, or Psa-AR (20 mg/kg in 200 μL of PBS) for 20 days. […]

The structures appear in SMILES notation. Numbered stars: 1 amine (or outer) side, 2 acyl side, 3 side chain; on linkers, the order of the positions; unused ones are H or OH. Square brackets hold non-standard residues; d marks the D form. Peptide text beside a SMILES is read from it. * marks the point of attachment. X2 = CC1(C)C(=O)N(c2ccc(C#N)c(C(F)(F)F)c2)C(=S)N1c1ccc(C(=O)*)c(F)c1; X1 = O=C1CCC(N2C(=O)c3cccc(N(CC(=O)[*:2])[*:1])c3C2=O)C(=O)N1; EuK = O=C(O)CC[C@H](NC(=O)N[C@@H](CCCCN*)C(=O)O)C(=O)O; 2Nal = N[C@@H](Cc1ccc2ccccc2c1)C(=O)O

As to `CC1(C)C(=O)N(c2ccc(C#N)c(C(F)(F)F)c2)C(=S)N1c1ccc(C(=O)NCCCC[C@H](NC(=O)CNc2cccc3c2C(=O)N(C2CCC(=O)NC2=O)C3=O)C(=O)N[C@@H](CS)C(=O)N[C@@H](CCC(N)=O)C(=O)N[C@@H](Cc2ccc(O)cc2)C(=O)N[C@@H](CC(N)=O)C(=O)N[C@@H](CCC(N)=O)C(=O)N[C@@H](Cc2ccc(O)cc2)C(=O)N[C@@H](Cc2ccc(O)cc2)C(=O)N[C@@H](Cc2ccc3ccccc3c2)C(=O)NCCCC[C@H](NC(=O)N[C@@H](CCC(=O)O)C(=O)O)C(=O)O)c(F)c1` (some centres unmarked) [Psa-AR] (H-[X1]K(X2)CQYNQYY[2Nal]-EuK), the FTIR amide I peak with PSMA came to 1630 cm⁻¹. This molecule also displayed an HSP90 degradation in the data set with HSP90 (22Rv1, 20 μM, 48 h, western blot) of over 60%. Besides, the “sustained HSP90 protein clearance over 96 h” value in the data set on HSP90 (22Rv1, optimal concentrations, 96 h) is given as 78%. For the same molecule, in the data set with 22Rv1 xenograft tumor (20 mg/kg study), the “extension of median survival compared with P-AR controls” value is listed as 1.8 fold and the “extension of median survival compared with PBS controls” value is 2.2 fold. For the same molecule, the tumor volume in the data set on 22Rv1 xenograft tumor (20 mg/kg tail vein every other day, five cycles, 20 days, PBS 1003 mm^3) is reported as 347 mm^3. For the same molecule, the “TUNEL apoptotic index of tumor sections” value with 22Rv1 xenograft tumor (20 mg/kg, 20 days, compared with PBS control and P-AR) is listed as “significant increase in the apoptotic index”. Moreover, the “AR and HSP90 protein expression in excised tumor tissues” value in the data set with 22Rv1 xenograft tumor (IF, 20 mg/kg, 20 days) is “AR and HSP90 reduction”. Further, in the data set with 22Rv1 xenograft tumor (K-M analysis, 20 mg/kg study, PBS 22 days), the median survival worked out at 48 days. The “TUNEL analysis of tumor tissue sections” value in the data set with 22Rv1 xenograft tumor (comparison study, 30 mg/kg, 20 days) was “increased activation of tumor apoptosis”. Further, the tumor volume in the data set on 22Rv1 xenograft tumor (comparison study, 20 days, Psa-AR 30 mg/kg i.v. every 2 days x5, enzalutamide 25 mg/kg, pimitespib 15 mg/kg, PBS 1017 mm^3) is recorded as 220 mm^3. Besides, the median survival with 22Rv1 xenograft tumor (comparison study, PBS 21 days) is 46 days. Also, the “body weight during the monitoring cycle” value with 22Rv1 xenograft tumor (dose study, 10, 20, or 30 mg/kg, 20 days) was “no significant change in the body weight”. In addition, the “mean tumor volume at 20 mg/kg” value with 22Rv1 xenograft tumor (dose study, intravenous every 48 h, five cycles, 20 days) came to 536 mm^3.
